What was measured:
[1] = test system: Myzus persicae; experiment: Myzus test (cabbage leaves dipped); type: in vivo; settings: single active compound, 1.6 ppm, cabbage leaves (Brassica oleracea) dipped
Experimental: (§1) To produce a suitable preparation of active compound, 1 part by weight of active compound is mixed with the stated amounts of solvent and emulsifier, and the concentrate is diluted with water to the desired concentrations.
Cabbage leaves (Brassica oleracea), which are heavily infested by the peach aphid (Myzus persicae) are treated by being dipped into the preparation of active compound of the desired concentration.
After the desired period of time, the kill in % is determined. 100% means that all animals have been killed; 0% means that none of the animals have been killed. The kill rates determined are calculated using Colby's formula.

[2] = test system: Aphis gossypii; experiment: Aphis gossypii test (cotton leaves dipped); type: in vivo; settings: single active compound, 1.6 ppm, cotton leaves (Gossypium hirsutum) dipped
Experimental: as §1
Cotton leaves (Gossypium hirsutum), which are heavily infested by the cotton aphid (Aphis Gossypii) are treated by being dipped into the preparation of active compound of the desired concentration.
After the desired period of time, the kill in % is determined. 100% means that all aphids have been killed; 0% means that none of the aphids have been killed. The kill rates determined are calculated using Colby's formula.

In the case of `CC[S+]([O-])CCSP(=O)(OC)OC` (centres unmarked) [oxydemeton-methyl], the “Kill rate in % after 6d” value [1] is reported as 0%.

`Cc1nc(N(C)C)nc(OC(=O)N(C)C)c1C` [pirimicarb] was tested, and the “Kill rate in % after 6d” value [2] was 5%.

Reference: patent US7060692B2, “Active ingredient combinations comprising insecticidal and acaricidal properties” (priority 2000, dated 2006)
